# Results as given in US20190192618A1 (priority 2016, published 2019).
# Read-outs that look alike come from different tables or passages of the source. Bridge positions count the residues as written; N and C are the ends. Square brackets hold non-standard residues; d marks the D form. Peptide text beside a SMILES is read from it. Dab = NCC[C@H](N)C(=O)O
# How the values were obtained:
# hERG potassium channel = molecular target: T1, hERG potassium channel (Homo sapiens, UniProt Q12809); assay: hERG current inhibition, single cell patch clamp in HEK293 cells; assay type: cell-based
# T1 construct: expressed in transfected cells
# Procedure: Currents were recorded via single cell patch clamp.
# in vivo [1] = settings: male, monkey, plasma, 20 mg/kg
# Procedure: (§1) PK analysis was performed using Phoenix® WinNonlin® Version 6.3 (Pharsight Corp. [Mountain View, Calif.]). […] The standard species body weights were assumed to perform allometric scaling purposes. For scaling, mouse, rat, monkey, and human weight were assumed to be 0.02, 0.25, 5, and 70 kg, respectively. PK data from only male animals were available for scaling.
# (§2) A MixRatio (additive and multiplicative) weighting was applied for all PK modeling.
# (§3) Single dose simulations were done using the low clearance estimate and high clearance estimate obtained from allometric scaling. […] Day 1 data was unavailable for rat. Only 2-3 measurable time points were used in the mouse PK data.
# [2] = Cardiopulmonary safety pharmacology study in monkeys; settings: for Body Temperature / Heart Rate / Mean Arterial Blood Pressure / QTc Interval / Respiratory Rate: monkey, in vivo
# Procedure: The monkeys in the study were telemeterized prior to study start. Data was collected in one minute intervals over a 24 hour period. The data was reported in 15 minute intervals over the first three hours.
# [3] = GLP 14 day repeat dose toxicology study in monkeys incl. CNS assessment; settings: cynomolgus monkey, in vivo
# Procedure: Histopathologic assessment was conducted on tissue sections stained with hematoxylin and eosin (H&E).
# The neurological assessment was performed on study day 9 or 10 and compared to both pre-test data (study day −6 or −7) as well as the vehicle control.
# [4] = rat, following 14 days of repeated dosing
# in vivo [5] = settings: male, rat, plasma, 10 mg/kg
# Procedure: as §1, §2, §3
# [6] = Efficacy studies in mice (mouse thigh studies); assay type: in vivo; settings: mouse thigh studies with SPR741 and rifampin
# Procedure: A 70 kg human weight was used in all models.
# Pharmacologic HED was then calculated using the equation below: […]
# in vivo [7] = settings: Sprague-Dawley, rat, plasma, iv, 1-hour IV infusion twice daily; for AUC(0-t): AUC(0-24)
# [8] = GLP 14 day repeat dose study in rats, toxicology; settings: rat
# Procedure: Parameters assessed during the in-life phase of the study included weekly body weights, clinical observations, survival, food consumption, ophthalmology, clinical pathology, and urine and plasma toxicokinetics. At necropsy, gross observations were recorded, organ weights were measured, and specific tissues were collected. Histopathologic assessment was conducted on tissue sections stained with hematoxylin and eosin (H&E).
# The use of an escalation phase was due to the acute histamine and/or complement mediated reactions commonly seen in rats with a broad range of polymyxins.
# For toxicology assessment, all animals were observed twice daily for mortality and moribundity. Clinical examinations were performed daily, and detailed physical examinations were performed weekly. Ophthalmic examinations were performed during once prior to study initiation and once during the study. Clinical pathology parameters (including Blood Urea Nitrogen and Serum Creatinine) were analyzed for all animals assigned to the scheduled necropsies. Complete necropsies were conducted on all animals, and selected organs were weighed at the scheduled necropsies. […] Gross lesions and infusion sites were examined from all animals in the low-dose group at the primary necropsy. Recovery was assessed in the mid-dose group and the control group following a 28-day non-dosing period. Following the 28-day non-dosing (recovery) period, complete necropsies were conducted on all animals, and selected organs were weighed at the scheduled necropsy. Selected tissues were examined microscopically from all animals.
# in vivo [9] = settings: male, mouse, plasma, 10 mg/kg
# Procedure: as §1, §2, §3
# [10] = human, fixed exponent, monkey PK data
# [11] = human, fixed exponent, mouse PK data
# [12] = human, fixed exponent, rat PK data
# [13] = human, floating exponent, mouse, rat and monkey PK data
# [14] = human, floating exponent, rat and monkey PK data
# [15] = 5 mg/kg/day, 5 mg/kg/day, study day 1
# [16] = 5 mg/kg/day, 5 mg/kg/day, study day 14
# [17] = 10 mg/kg/day, 10 mg/kg/day, study day 1
# [18] = 10 mg/kg/day, 10 mg/kg/day, study day 14
# [19] = 15 mg/kg/day, 15 mg/kg/day, study day 1
# [20] = 15 mg/kg/day, 15 mg/kg/day, study day 14
# T1 sequence (Q12809 whole entry): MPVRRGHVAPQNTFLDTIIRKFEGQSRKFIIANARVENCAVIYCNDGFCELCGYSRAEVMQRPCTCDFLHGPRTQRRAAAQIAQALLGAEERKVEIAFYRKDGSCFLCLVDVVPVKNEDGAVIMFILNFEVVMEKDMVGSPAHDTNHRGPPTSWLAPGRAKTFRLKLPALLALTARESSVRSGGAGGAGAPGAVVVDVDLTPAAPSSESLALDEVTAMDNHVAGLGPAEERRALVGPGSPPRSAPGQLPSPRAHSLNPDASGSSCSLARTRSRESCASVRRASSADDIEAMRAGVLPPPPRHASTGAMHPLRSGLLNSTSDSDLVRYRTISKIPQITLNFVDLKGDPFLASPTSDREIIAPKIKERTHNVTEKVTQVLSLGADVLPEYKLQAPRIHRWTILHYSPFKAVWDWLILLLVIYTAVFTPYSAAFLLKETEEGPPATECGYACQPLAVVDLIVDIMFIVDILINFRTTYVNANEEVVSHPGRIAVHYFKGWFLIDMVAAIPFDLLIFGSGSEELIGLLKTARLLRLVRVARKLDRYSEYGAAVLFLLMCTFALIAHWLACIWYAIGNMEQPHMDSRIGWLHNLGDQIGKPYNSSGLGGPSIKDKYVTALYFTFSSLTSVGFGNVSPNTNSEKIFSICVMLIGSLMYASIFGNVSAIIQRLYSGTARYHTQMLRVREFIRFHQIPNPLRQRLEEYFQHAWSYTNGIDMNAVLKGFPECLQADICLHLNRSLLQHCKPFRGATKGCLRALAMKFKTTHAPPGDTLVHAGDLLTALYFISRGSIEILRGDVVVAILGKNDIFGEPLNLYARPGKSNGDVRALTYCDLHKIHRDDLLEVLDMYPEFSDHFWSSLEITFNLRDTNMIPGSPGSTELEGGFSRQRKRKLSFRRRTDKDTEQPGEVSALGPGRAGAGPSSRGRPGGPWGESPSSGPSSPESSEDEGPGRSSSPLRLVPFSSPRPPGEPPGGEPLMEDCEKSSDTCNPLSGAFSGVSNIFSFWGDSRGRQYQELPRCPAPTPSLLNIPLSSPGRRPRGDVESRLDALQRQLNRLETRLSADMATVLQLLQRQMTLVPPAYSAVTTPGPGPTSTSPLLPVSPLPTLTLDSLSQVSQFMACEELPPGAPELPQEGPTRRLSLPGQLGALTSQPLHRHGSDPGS
compound,measurement,setting,value
"COc1cc(N)c(Cl)cc1C(=O)NC1CCN(CCCOc2ccc(F)cc2)CC1OC (stereo not shown) [Cisapride, reference compound]",inhibition at 0.047 μg/mL,hERG potassium channel; human,79.8%
"CC(=O)N[C@H](C(=O)N[C@H](CO)C(=O)N[C@H]1CCNC(=O)[C@H]([C@@H](C)O)NC(=O)[C@H](CCN)NC(=O)[C@H](CCN)NC(=O)[C@H](CC(C)C)NC(=O)[C@@H](Cc2ccccc2)NC(=O)[C@H](CCN)NC1=O)[C@@H](C)O [SPR741, Acetyl-Thr-dSer-cy[Dab-Dab-dPhe-Leu-Dab-Dab-Thr]] (Ac-T[dS][Dab][Dab][dF]L[Dab][Dab]T; lactam 3-C)",Vd,in vivo [1],0.238 L/kg
same,clearance,in vivo [1],2.28 mL/min/kg
same,IC50,hERG potassium channel,could not be calculated
same,Change in mean hERG-mediated potassium currents,hERG potassium channel; concentrations up to 300 μg/mL,no meaningful change
same,inhibition at 10 μg/mL,hERG potassium channel; human,0.08%
same,inhibition at 30 μg/mL,hERG potassium channel; human,-0.09%
same,inhibition at 100 μg/mL,hERG potassium channel; human,1.62%
same,inhibition at 300 μg/mL,hERG potassium channel; human,3.87%
same,Body Temperature,[2]; 5 mg/kg,38.3 °C
same,Heart Rate,[2]; 5 mg/kg,142 bpm
same,Mean Arterial Blood Pressure,[2]; 5 mg/kg,105 mm Hg
same,QTc Interval,[2]; 5 mg/kg,220 ms
same,Respiratory Rate,[2]; 5 mg/kg,27
same,Body Temperature,[2]; 10 mg/kg,38.3 °C
same,Heart Rate,[2]; 10 mg/kg,141 bpm
same,Mean Arterial Blood Pressure,[2]; 10 mg/kg,104 mm Hg
same,QTc Interval,[2]; 10 mg/kg,222 ms
same,Respiratory Rate,[2]; 10 mg/kg,25
same,Body Temperature,[2]; 20 mg/kg,38.7 °C
same,Heart Rate,[2]; 20 mg/kg,145 bpm
same,Mean Arterial Blood Pressure,[2]; 20 mg/kg,97 mm Hg
same,QTc Interval,[2]; 20 mg/kg,220 ms
same,Respiratory Rate,[2]; 20 mg/kg,26
same,"SPR741-related clinical signs or changes in body weight, body temperature, blood pressures, heart rate, ECG intervals, respiratory rate, tidal volume, minute volume","[2]; monkeys, cardiopulmonary study",no SPR741-related clinical signs
same,NOAEL at 14 days,[3]; both,40 mg/kg/day
same,Reversibility of nephrotoxicity,[3],fully reversible
same,Systemic exposure versus dose,[4],dose dependent proportional systemic exposure
same,CL,"human 70 kg, fixed exponent, monkey PK data",70.8 mg/h/kg
same,CL,"human 70 kg, fixed exponent, mouse PK data",57.5 mg/h/kg
same,CL,"human 70 kg, fixed exponent, rat PK data",103 mg/h/kg
same,CL,[10],1.18 mL/min/kg
same,T1/2,[10],2.33 h
same,CL,[11],0.958 mL/min/kg
same,T1/2,[11],2.16 h
same,Vd,[11],0.179 L/kg
same,CL,[12],1.72 mL/min/kg
same,T1/2,[12],2.31 h
same,Vd,[12],0.345 L/kg
same,CL,[13],1.5 mL/min/kg
same,T1/2,[13],2.44 h
same,Vd,[13],0.315 L/kg
same,CL,[14],0.847 mL/min/kg
same,T1/2,[14],2.34 h
same,Vd,[14],0.172 L/kg
same,Vd,in vivo [5],0.345 L/kg
same,clearance,in vivo [5],7.05 mL/min/kg
same,AUC value of efficacy data,[6],60 µg·h/mL
same,AUC(0-t),in vivo [7]; [15],8200 ng·h/mL
same,AUC(0-t),in vivo [7]; [16],8300 ng·h/mL
same,Cmax,in vivo [7]; [15],3400 ng/mL
same,Cmax,in vivo [7]; [16],3300 ng/mL
same,AUC(0-t),in vivo [7]; [17],25000 ng·h/mL
same,AUC(0-t),in vivo [7]; [18],20300 ng·h/mL
same,Cmax,in vivo [7]; [17],9500 ng/mL
same,Cmax,in vivo [7]; [18],6700 ng/mL
same,AUC(0-t),in vivo [7]; [19],47400 ng·h/mL
same,AUC(0-t),in vivo [7]; [20],32900 ng·h/mL
same,Cmax,in vivo [7]; [19],14900 ng/mL
same,Cmax,in vivo [7]; [20],10800 ng/mL
same,Tolerability,[8]; dose levels higher than 5 mg/kg,exhibited toxicity
same,Tolerability,"[8]; in vivo, 5 mg/kg",well tolerated
same,% BUN increase relative to control (mg/dL),"[8]; in vivo, 10 mg/kg/day",34%
same,% BUN increase relative to control (mg/dL),"[8]; in vivo, 15 mg/kg/day",59%
same,% Control CRN,"[8]; in vivo, 15 mg/kg/day",59%
same,Vd,in vivo [9],0.179 L/kg
same,clearance,in vivo [9],7.37 mL/min/kg
